Results on 1 compound are retold here after patent US20240408082A1, “METHODS FOR TREATING CANCERS AND TUMORS” (BEYONDSPRING PHARMACEUTICALS, INC., priority 2021, published 2024).

One may read the IC50 as the concentration that gives 50% inhibition.

The test system of the assay is gastric cancer (Asian). In words: 3D clonogenic assay, Example 2, gastric cancer (Asian). The assay is classed as cell-based. The settings on record: n=3 models. The protocol: The present study investigated plinabulin for anticancer activity ex vivo in 68 out of 71 originally planned patient-derived xenograft (PDX) models representing major cancer types. Experiments were performed using a 3D clonogenic assay in a 96-well format with colony count based on image analysis as a read-out. By using this assay, the investigational compound was assessed for the ability to inhibit anchorage independent growth and ex vivo colony formation of tumor cells in semi-solid medium.
A master stock solution of plinabulin was prepared by dissolving the compound in DMSO at a concentration of 9.9 mM. Working stock solutions were prepared by diluting the master stock solution with DMSO to a concentration of 0.99 mM (330-fold the highest test concentration). Small aliquots of the master and working stock were stored at −20° C. […]
Plinabulin was investigated in 68 PDX models representing a number of cancer types. […] The percentage of viable cells was determined in a Neubauer-hemocytometer using trypan blue exclusion. […]
The clonogenic assay was carried out in a 96 well plate format using ultra low attachment plates. […] Cultures were incubated at 37° C. and 7.5% CO2 in a humidified atmosphere 13 days in total and monitored closely for colony growth using an inverted microscope. […]

In the case of `CC(C)(C)c1[nH]cnc1/C=c1\[nH]c(=O)/c(=C/c2ccccc2)[nH]c1=O` [plinabulin, (3Z,6Z)-3-Benzylidene-6-{[5-(2-methyl-2-propanyl)-1H-imidazol-4-yl]methylene}-2,5-piperazinedione], the “geom. mean abs. IC70” value worked out at 319 nM. Moreover, the IC50 (read-out: geom. mean abs. IC50) is 166 nM.
